Measured values from patent US20020061599A1, “Method of identifying ligands of biological target molecules” (priority 1999, published 2002).
Entries after “also recorded” stand apart in the source; their conditions may differ.

Assays:
[1] = molecular target: T1, NK1 receptor [HisIII:08;CysVII:06] (Homo sapiens, UniProt P25103, M291C/P112H); assay: Competition binding with [125I]-Substance P, NK1 receptor [HisIII:08;CysVII:06] site; conditions: all in complex with Zn(II)
T1 construct: expressed in transfected cells; host or cells: COS-7
Experimental: (§1) Binding of [^125I]-Substance P was analysed in COS-7 cells expressing NK1 receptor which have been engineered to bind the zinc metal-ion. Ligand binding is presented in competiton with the zinc metal-ion, the zinc-1,10-phenanthroline complex and with other zinc-chelator complexes as indicated. For structures of the chelators, see Appendix.

[2] = molecular target: T2, NK1 receptor [HisV:05,HisVI:24] (Homo sapiens, UniProt P25103, Y272H); assay: Competition binding with [125I]-Substance P, NK1 receptor [HisV:05,HisVI:24] site; conditions: all in complex with Zn(II)
T2 construct: expressed in transfected cells; host or cells: COS-7
Experimental: as §1

galanin R1 receptor = molecular target: T3, galanin R1 receptor (Homo sapiens, UniProt P47211); assay: Whole cell competition binding with [125I]-galanin in COS-7 cells expressing galanin receptor; conditions: for binding affinity compared with the basic chelator 1,10-phenanthroline: chelator in complex with Cu(II)
T3 construct: expressed in transfected cells; host or cells: COS-7
T3 sequence (P47211 1-349): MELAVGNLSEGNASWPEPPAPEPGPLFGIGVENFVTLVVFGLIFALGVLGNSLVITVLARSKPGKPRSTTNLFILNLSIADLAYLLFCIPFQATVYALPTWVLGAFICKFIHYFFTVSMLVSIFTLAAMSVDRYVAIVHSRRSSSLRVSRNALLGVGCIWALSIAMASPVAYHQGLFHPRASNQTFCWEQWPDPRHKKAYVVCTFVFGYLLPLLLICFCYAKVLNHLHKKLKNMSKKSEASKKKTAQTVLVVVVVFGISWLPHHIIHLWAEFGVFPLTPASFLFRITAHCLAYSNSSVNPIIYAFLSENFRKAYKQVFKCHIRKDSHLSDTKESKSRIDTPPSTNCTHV
Description: Whole cell competition binding experiment with COS-7 cells expressing the wild type and mutant forms of the galanin receptor using [^125I]-galanin as radioligand.
Methods—The galanin receptor cDNA was introduced into COS-7 cells by the standard calcium phosphate transfection method. The cells were transferred and seeded in multi-well plates for assay one day following the transfection and the number of cells plated per well was adjusted for each individual (wild type and mutant) construct aiming at the binding of 5 to 10% of the radioligand present in the assay. Two days post-transfection the cells were assayed for the presence of [^125]-Galanin binding activity. Radioligand was bound in buffer composed of 25 mM Hepes (pH 7.4), 2.5 mM MgCl2, […] Baciacin and displaced in a dose dependent manner by unlabelled ligand. The assay was performed in triplicate for 3 hours at 4° C., and terminated by the addition of lysis buffer (48% urea, 2% NP-40 in 3M acetic acid). The concentration of radioligand in the assay corresponds to a final concentration of 20 pM.

[3] = molecular target: T4, leukotriene LTB4 receptor (Homo sapiens, UniProt Q15722); assay: Whole cell competition binding with [3H]-LTB4 in COS-7 cells expressing wild type LTB4 receptor
T4 construct: expressed in transfected cells; host or cells: COS-7
Description: Whole cell competition binding experiment with COS-7 cells expressing the wild type and mutant variants of the leukotriene LTB4 receptor using [^3H]-LTB4 as the radioligand.
Methods—The leukotriene LTB4 receptor cDNA was cloned by PCR from a leukocyte cDNA library, built into an eukaryotic expression vector and introduced into COS-7 cells by a standard calcium phosphate transfection method. One day after transfection the cells were transferred and seeded in multi-well plates for assay. The number of cells plated per well was chosen so as to obtain 5 to 10% binding of the radioligand added. Two days after transfection the cells were assayed for the presence of [^3H]-LTB4 binding activity. […] The assay was performed in duplicate for 3 hours at 4° C., and stopped by washing twice in buffer. Cell associated, receptor bound radioligand was determined by the addition of lysis buffer (48% urea, 2% NP-40 in 3M acetic acid).

[4] = molecular target: T5, [H193K] dopamine transporter (Homo sapiens, UniProt Q01959, H193K); assay: [3H]-dopamine uptake in COS-7 cells, [H193K] mutant dopamine transporter; type: cell-based; conditions: mutational substitution of His193; chelator in complex with Zn(II)
T5 construct: expressed in transfected cells; host or cells: COS-7
Experimental: Panel B. Dopamine uptake analysis in a mutant form of the dopamine transporter, [H193K], in which binding of the metal-ion complex has been eliminated (Noregaard et al. EMBO J. (1998) 17: 4266-4273).
(§2) Methods—The dopamine transporter cDNA was introduced into COS-7 by the standard calcium phosphate transfection method. Two days post-transfection the cells were assayed for [^3H]-Dopamine uptake activity. The uptake assays was performed in 25 mM Hepes pH 7.4, 120 mM NaCl, 5 mM KCl, 1.2 mM CaCl2, 1.2 mM MgSO4, 1 mM ascorbic acid and 5 mM D-glucose and in the presence of various concentrations of unlabelled dopamine as indicated in the figures. The assay was performed in triplicate at 37° C. for 10 minutes, and terminated by washing with buffer twice and the addition of lysis buffer (48% urea, 2% NP-40 in 3M acetic acid).

dopamine transporter = molecular target: T6, dopamine transporter (Homo sapiens, UniProt Q01959); assay: [3H]-dopamine uptake in COS-7 cells expressing wild-type dopamine transporter; type: cell-based; conditions: for effect on dopamine transport: chelator by itself, without metal-ion
T6 construct: expressed in transfected cells; host or cells: COS-7
Experimental: Competition analysis of uptake of [^3H]-dopamine in whole COS-7 cells expressing the dopamine transporter.
as §2

[5] = test system: metal-ion site engineered tachykinin NK1 receptors; assay: Competition binding with [125I]-Substance P, library of inter-helical metal-ion sites engineered into NK1 receptor; conditions: sites between TM-III and -V and between TM-V and -VI
Experimental: COS-7 cells expressing various engineered forms of the NK1 receptor were analyzed by competition binding using [^125I]-Substance P as radioligand

Factor VIIa (FVIIa) = molecular target: T7, Factor VIIa (FVIIa) (Homo sapiens, UniProt P08709); assay: Amidolytic activity of Factor VIIa; type: biochemical; conditions: for effect on the activity of FVIIa: chelator without metal-ions
T7 construct: Factor VIIa, i.e. the active form of the FVII protease involved in the coagulation cascade; purchased American Diagnostica
T7 sequence (P08709 213-466 limits assumed): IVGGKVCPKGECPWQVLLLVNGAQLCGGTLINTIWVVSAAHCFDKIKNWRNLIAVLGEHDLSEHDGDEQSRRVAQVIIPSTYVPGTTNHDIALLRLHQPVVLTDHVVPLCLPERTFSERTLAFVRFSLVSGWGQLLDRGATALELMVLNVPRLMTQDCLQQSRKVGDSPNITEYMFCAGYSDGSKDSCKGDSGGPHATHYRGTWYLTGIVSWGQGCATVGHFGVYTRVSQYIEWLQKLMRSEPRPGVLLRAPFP
T7 sequence (P08709 61-212 partner limits assumed): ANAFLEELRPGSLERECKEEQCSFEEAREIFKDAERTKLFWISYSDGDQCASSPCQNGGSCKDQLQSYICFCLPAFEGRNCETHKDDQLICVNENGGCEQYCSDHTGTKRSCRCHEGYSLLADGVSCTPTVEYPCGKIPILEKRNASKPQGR
Experimental: Method—The amidolytic activity of Factor VIIa (FVIIa) was measured by the incubation of 2.5 μl FVIIa (100 nM final concentration, obtained from American Diagnostica), 2.5 μl ligand and 4 μl substrate (10 mM, S2288 obtained from Chromogenix) in 42.5 μl buffer (50 mM Hepes pH 7.4, 1 mM CaCl2, 100 mM NaCl, 0,02% Tween 20). The assay was performed in 96-well plates (Costar). Incubation was performed at room temperature for five hours with absorbance read every 10 minutes.

T2 sequence (P25103 whole entry Y272H): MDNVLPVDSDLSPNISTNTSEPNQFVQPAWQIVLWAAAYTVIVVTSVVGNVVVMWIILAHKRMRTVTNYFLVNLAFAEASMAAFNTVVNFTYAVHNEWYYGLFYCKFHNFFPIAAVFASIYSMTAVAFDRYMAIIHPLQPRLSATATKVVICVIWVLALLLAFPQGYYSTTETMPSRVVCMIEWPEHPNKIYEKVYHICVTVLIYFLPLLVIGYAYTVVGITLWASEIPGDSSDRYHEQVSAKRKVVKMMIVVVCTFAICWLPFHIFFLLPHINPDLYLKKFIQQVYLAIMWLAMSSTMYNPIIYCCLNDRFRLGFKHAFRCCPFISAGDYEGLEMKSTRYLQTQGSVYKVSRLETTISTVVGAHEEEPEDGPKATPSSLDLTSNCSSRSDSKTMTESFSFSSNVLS
T4 sequence (Q15722 whole entry): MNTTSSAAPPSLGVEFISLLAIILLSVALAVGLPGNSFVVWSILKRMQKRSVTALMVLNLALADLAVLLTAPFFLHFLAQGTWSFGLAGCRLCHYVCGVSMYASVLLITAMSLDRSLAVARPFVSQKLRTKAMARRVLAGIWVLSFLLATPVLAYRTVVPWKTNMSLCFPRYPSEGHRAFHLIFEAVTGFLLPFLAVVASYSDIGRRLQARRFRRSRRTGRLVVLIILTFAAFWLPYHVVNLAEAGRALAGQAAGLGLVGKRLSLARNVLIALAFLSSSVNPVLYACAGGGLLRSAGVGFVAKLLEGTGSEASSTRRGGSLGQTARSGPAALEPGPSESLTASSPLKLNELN
T1 sequence (P25103 whole entry P112H/M291C): as the sequence (P25103 whole entry Y272H) above, with P112H, H272Y, M291C counted along it
T6 sequence (Q01959 whole entry): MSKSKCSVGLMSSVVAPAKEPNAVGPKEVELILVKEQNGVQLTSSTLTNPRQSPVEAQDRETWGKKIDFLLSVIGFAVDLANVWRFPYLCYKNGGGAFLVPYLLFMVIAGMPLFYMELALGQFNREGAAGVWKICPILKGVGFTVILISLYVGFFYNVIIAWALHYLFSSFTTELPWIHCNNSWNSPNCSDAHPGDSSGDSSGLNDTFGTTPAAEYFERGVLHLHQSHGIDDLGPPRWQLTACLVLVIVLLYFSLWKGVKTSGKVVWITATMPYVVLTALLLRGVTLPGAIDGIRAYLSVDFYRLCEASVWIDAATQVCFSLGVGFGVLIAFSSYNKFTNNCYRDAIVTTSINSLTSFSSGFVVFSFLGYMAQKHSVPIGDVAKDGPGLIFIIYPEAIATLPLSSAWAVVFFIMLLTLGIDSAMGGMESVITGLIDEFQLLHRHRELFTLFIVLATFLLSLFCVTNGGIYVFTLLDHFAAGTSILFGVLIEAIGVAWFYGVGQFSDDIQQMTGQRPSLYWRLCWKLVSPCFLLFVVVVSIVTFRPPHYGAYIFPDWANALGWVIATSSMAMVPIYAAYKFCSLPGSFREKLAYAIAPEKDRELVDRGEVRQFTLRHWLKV
T5 sequence (Q01959 whole entry H193K): as the sequence (Q01959 whole entry) above, with H193K counted along it

SMILES: c1ccc(-c2cc3cccnc3c3ncccc23)cc1 [compound 134, 5-phenyl-1,10-phenanthroline]
- potency, fold more potent than phenanthroline [1]: 7 fold
- potency compared with phenanthroline [2]: only slightly more potent
- binding affinity compared with the basic chelator 1,10-phenanthroline (galanin R1 receptor): bound like 1,10′-phenanthroline
- binding of the metal-ion chelator complex compared with 1,10-phenanthroline ([3]; chelator in complex with Cu(II)): entirely eliminated the binding; also recorded: totally inactive

SMILES: CC(=O)O/N=C(\N)c1ccccn1 [compound 210, 2-pyridylamidoxime, O-acetyl]
- effect of the metal-ion chelator complex on dopamine transport [4]: eliminated
- effect on dopamine transport (dopamine transporter): does not affect
- potency of blocking dopamine transport, fold higher than free Zn(II) (dopamine transporter; chelator in complex with Zn(II), mono-component): approx 10 fold

SMILES: OCc1ccc2ccc3ccc(CO)nc3c2n1 [compound 133, 2,9-dimethanol-1,10-phenanthroline]
- binding affinity compared with the basic chelator 1,10-phenanthroline (galanin R1 receptor): decrease the affinity

SMILES: [Cl][Cu][Cl] [Cu(II), reference compound]
- increase in affinity versus wild-type [5]: no increase or just a marginal increase in affinity
- Hill coefficient (galanin R1 receptor; displacement of [125I]-galanin): −4
- IC50 ([3]; wild type receptor, whole COS-7 cells, read-out: IC50, displacement of [3H]-LTB4): 70 µM

SMILES: ClC(Cl)(Cl)c1ccc2ccc3ccc(C(Cl)(Cl)Cl)nc3c2n1 [compound 135, 2,9-bis(trichloromethyl)-1,10-phenanthroline]
- potency of inhibiting FVIIa compared with the basic chelator complex (Factor VIIa (FVIIa); chelator in complex with Zn(II)): increased potency
- binding compared with 1,10′-phenanthroline [1]: almost similar
- binding, fold better than 1,10-phenanthroline [2]: 6 fold

SMILES: O=C1C(=O)c2cccnc2-c2ncccc21 [compound 175, 1,10-phenanthroline-5,6-dione]
- binding compared with 1,10′-phenanthroline [1]: almost similar
- binding, fold better than 1,10-phenanthroline [2]: 10 fold

SMILES: Cc1cc2cccnc2c2ncccc12 [compound 176, 5-methyl-1,10-phenanthroline]
- binding affinity compared with the basic chelator 1,10-phenanthroline (galanin R1 receptor): increase the binding affinity

SMILES: c1cnc2c(c1)ccc1cccnc12 [1,10-phenanthroline, reference compound]
- effect on the activity of FVIIa (Factor VIIa (FVIIa)): no effect
- effect on [125I]-galanin binding (galanin R1 receptor; chelator alone, without metal-ion): no effect

SMILES: c1ccc(-c2ccccn2)nc1 [2,2′-bipyridine, reference compound]
- effect on the activity of FVIIa (Factor VIIa (FVIIa)): no effect
- effect on dopamine transport (dopamine transporter): no effect
